Source: US20240316047A1, “INHIBITORS OF RNA HELICASE DHX9 AND USES THEREOF” (ACCENT THERAPEUTICS, INC., priority 2022, published 2024)

Target: Human recombinant DHX9 protein (Homo sapiens (Human), UniProt Q08211)
Test: DHX9 ATPase assay (ADP-Glo)
Format: biochemical
Settings: for IC50: read-out: DHX9 Biochemical Inflection Point

Chain of Human recombinant DHX9 protein (Q08211 whole entry): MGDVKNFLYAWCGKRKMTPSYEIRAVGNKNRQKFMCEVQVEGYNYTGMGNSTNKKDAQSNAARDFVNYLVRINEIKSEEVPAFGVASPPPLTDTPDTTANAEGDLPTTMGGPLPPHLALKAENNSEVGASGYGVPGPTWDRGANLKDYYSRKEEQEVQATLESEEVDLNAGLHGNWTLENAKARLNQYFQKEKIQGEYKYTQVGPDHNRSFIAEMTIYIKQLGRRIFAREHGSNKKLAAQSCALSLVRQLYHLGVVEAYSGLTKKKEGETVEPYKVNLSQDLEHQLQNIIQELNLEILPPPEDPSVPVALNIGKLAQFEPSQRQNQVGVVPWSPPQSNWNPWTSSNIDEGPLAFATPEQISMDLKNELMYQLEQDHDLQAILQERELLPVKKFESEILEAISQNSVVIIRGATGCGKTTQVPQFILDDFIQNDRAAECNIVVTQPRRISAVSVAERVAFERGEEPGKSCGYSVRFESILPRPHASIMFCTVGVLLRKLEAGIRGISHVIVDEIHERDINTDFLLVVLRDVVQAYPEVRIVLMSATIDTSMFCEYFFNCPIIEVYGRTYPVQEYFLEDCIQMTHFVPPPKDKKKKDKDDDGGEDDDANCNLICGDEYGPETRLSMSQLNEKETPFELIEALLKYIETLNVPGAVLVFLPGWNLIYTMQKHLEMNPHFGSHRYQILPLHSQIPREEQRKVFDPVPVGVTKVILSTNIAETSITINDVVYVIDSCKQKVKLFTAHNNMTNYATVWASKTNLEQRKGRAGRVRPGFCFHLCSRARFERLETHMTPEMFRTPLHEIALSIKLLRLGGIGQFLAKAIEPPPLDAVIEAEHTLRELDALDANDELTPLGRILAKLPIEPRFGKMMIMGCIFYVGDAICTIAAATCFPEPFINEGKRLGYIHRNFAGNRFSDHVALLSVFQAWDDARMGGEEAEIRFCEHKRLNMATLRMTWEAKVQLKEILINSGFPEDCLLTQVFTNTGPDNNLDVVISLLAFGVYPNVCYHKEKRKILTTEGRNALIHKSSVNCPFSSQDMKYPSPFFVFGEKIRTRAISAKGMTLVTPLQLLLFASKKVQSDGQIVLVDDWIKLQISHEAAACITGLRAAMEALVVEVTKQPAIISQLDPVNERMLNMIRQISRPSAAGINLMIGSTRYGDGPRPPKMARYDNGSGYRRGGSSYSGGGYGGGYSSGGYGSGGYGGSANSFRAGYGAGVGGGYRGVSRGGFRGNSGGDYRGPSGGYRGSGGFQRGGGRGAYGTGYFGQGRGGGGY

DHX9 Biochemical Max Inhibition | IC50 [nM] | SMILES
53.8% | 604 | CS(=O)(=O)Nc1cc(Cl)cc(NC(=O)c2csc(-c3ccccc3)c2)c1 [Example 124, N-(3-chloro-5-(methylsulfonamido)phenyl)-5-phenylthiophene-3-carboxamide]
84.5 | 186 | CCS(=O)(=O)Nc1cc(Cl)cc(NC(=O)c2cc(-c3ccc(N4CC(F)(F)C4)cn3)n(C)c2)c1 [Example 403]
50.9% | 298 | CS(=O)(=O)Nc1cc(Br)cc(NC(=O)c2ccc3c(c2)[nH]c(=O)n3Cc2ccccc2)c1 [Example 99, 1-benzyl-N-(3-bromo-5-(methylsulfonamido)phenyl)-2-oxo-2,3-dihydro-1H-benzo[d]imidazole-5-carboxamide]
60.2 | 48.6 | CCS(=O)(=O)Nc1cc(Cl)cc(NC(=O)c2cc(-c3ncc(F)cc3F)n(C)c2)c1 [Example 543]
73.2% | 92.3 | CS(=O)(=O)Nc1cc(Cl)cc(NC(=O)c2cc(C3CCNCC3)cs2)c1 [Example 243]
75.4 | 11.5 | Cc1sc(C(=O)Nc2cc(Cl)cc(NS(C)(=O)=O)c2)cc1-c1ncc(F)cc1C#CC(C)(C)O [Example 696]
69.1 | 22 | Cn1cc(C(=O)Nc2cc(Cl)cc(NS(C)(=O)=O)c2)cc1-c1ncc(N2CC(F)(F)C2)cn1 [Example 597]
80.2 | 20.3 | Cn1cc(C(=O)Nc2cc(Cl)cc(NS(C)(=O)=O)c2)cc1-c1ncc(OC(F)F)cn1 [Example 553]
64.3 | 25.3 | CS(=O)(=O)Nc1cc(Cl)cc(NC(=O)c2cc(-c3ccc(N4CC(F)(F)C4)cn3)cs2)c1 [Example 487]
66.5% | 207 | CS(=O)(=O)Nc1cc(Cl)cc(NC(=O)c2cnn(-c3ccccc3-c3cncc(F)c3)c2)c1 [Example 257]
72.2 | 18.1 | COC(=O)N1CCN(c2ccc(-c3cc(C(=O)Nc4cc(Cl)cc(NS(C)(=O)=O)c4)cn3C)nc2)CC1 [Example 596]
62.8 | 79.1 | CS(=O)(=O)Nc1cc(Cl)cc(NC(=O)c2cc(-c3ncc(F)cn3)c(Cl)s2)c1 [Example 450]
72.8% | 14.8 | Cc1sc(C(=O)Nc2cc(Br)cc(NS(C)(=N)=O)c2)cc1-c1ccccn1 (stereo not drawn) [Example 123]
72.3% | 12.7 | CS(=O)(=O)Nc1cc(Cl)cc(NC(=O)c2cnn(-c3ncc(F)cc3OCc3cccc(F)c3)c2)c1 [Example 202]
56.6% | – | CS(=O)(=O)Nc1cc(Cl)cc(NC(=O)c2cc(-c3cccnc3)cs2)c1 [Example 116, N-(3-chloro-5-(methylsulfonamido)phenyl)-4-(pyridin-3-yl)thiophene-2-carboxamide]
82.3% | 19.5 | Cc1cc(C(=O)Nc2cc(Cl)cc(NS(C)(=O)=O)c2)cn1-c1ccc(Cl)cn1 [Example 389]
59% | 1610 | CS(=O)(=O)Nc1cc(Cl)cc(NC(=O)c2cc3ccc(F)cc3s2)c1 [Example 294]
68.8 | 87.7 | Cc1cc(C(=O)Nc2cc(Cl)cc(NS(C)(=O)=O)c2)cn1-c1ncc(OC(C)(C)C)cn1 [Example 664]
67.6% | 4.2 | CS(=O)(=O)Nc1cc(Cl)cc(NC(=O)c2cnn(-c3ccc(N4CC5CCC(C4)O5)cn3)c2)c1 [Example 191]
90.7 | 12.2 | CCOc1cnc(-c2cc(C(=O)Nc3cc(Cl)cc(NS(C)(=O)=O)c3)cn2C)c(F)c1 [Example 453]
74.4 | 6.8 | Cc1sc(C(=O)Nc2cc(Cl)cc(NS(C)(=O)=O)c2)cc1-c1ncccc1OCc1cncc(F)c1 [Example 621]
46.3% | 251 | CS(=O)(=O)Nc1cc(I)cc(NC(=O)c2cc(-c3ccccc3)cs2)c1 [Example 16]
70.8 | 366 | CC(C)(C)OC(=O)N1CC(n2cc(C(=O)Nc3cc(Cl)cc(NS(C)(=O)=O)c3)cc2-c2ncc(F)cn2)C1 [Example 645]

Further lines, the compound ahead of its results:

SMILES | DHX9 Biochemical Max Inhibition | IC50 [nM]
CCCS(=O)(=O)Nc1cc(Cl)cc(NC(=O)c2cc(-c3ncccc3C)cs2)c1 [Example 372] | 49.2% | 402
Cc1cccc(OCc2cccc(F)c2)c1-n1cc(C(=O)Nc2cc(Cl)cc(NS(C)(=O)=O)c2)cn1 [Example 255] | 75.8% | 72.4
Cc1cccnc1-n1cc(C(=O)Nc2cc(Cl)cc(NS(C)(=O)=O)c2)cn1 [Example 54] | 66.6% | 65.6
Cn1cc(C(=O)Nc2cc(Cl)cc(NS(C)(=O)=O)c2)cc1-c1ncc(N2CCC3(C2)CC3(F)F)cn1 (stereo not drawn) [Example 494] | 55.9 | 26.9
Cc1sc(C(=O)Nc2cc(Cl)cc(NS(C)(=O)=O)c2)cc1-c1ncc(C2CCN(CC(F)(F)F)CC2)cc1F [Example 618] | 66.6 | 59.2
Cc1sc(C(=O)Nc2cc(Cl)cc(NS(C)(=O)=O)c2)cc1-c1ncc(F)cc1N1CCN(S(C)(=O)=O)CC1 [Example 506] | 47.4 | 184
CS(=O)(=O)Nc1cc(Cl)cc(NC(=O)c2cc(-c3ccccn3)c(C3CC3)s2)c1 [Example 177, N-(3-chloro-5-(methylsulfonamido)phenyl)-5-cyclopropyl-4-(pyridin-2-yl)thiophene-2-carboxamide] | 77% | 21.6
CCn1nc(C(=O)Nc2cc(F)cc(NS(C)(=O)=O)c2)cc1C [Example 119, 1-ethyl-N-(3-fluoro-5-(methylsulfonamido)phenyl)-5-methyl-1H-pyrazole-3-carboxamide] | 82.1% | 1160
CS(=O)(=O)Nc1cc(Cl)cc(NC(=O)c2cc3ccncc3s2)c1 [Example 230] | 65.9% | 93
Cn1cc(C(=O)Nc2cc(Cl)cc(NS(C)(=O)=O)c2)cc1-c1ccc(C2CCN(CC(F)(F)F)CC2)cn1 [Example 619] | 81.3 | 178
Cn1cc(C(=O)Nc2cc(Cl)cc(NS(=O)(=O)CCO)c2)cc1-c1ncc(F)cc1F [Example 581] | 50.5 | 99.1
CC(C)(C)Oc1cnc(-c2cc(C(=O)Nc3cc(Cl)cc(NS(C)(=O)=O)c3)sc2CO)nc1 [Example 686] | 66.6 | 18.2
CS(=O)(=O)Nc1cc(Br)cc(NC(=O)c2cc(-c3ccccn3)n(CC#N)c2)c1 [Example 95, N-(3-bromo-5-methanesulfonamidophenyl)-1-(cyanomethyl)-5-(pyridin-2-yl)-1H-pyrrole-3-carboxamide] | 59.2% | 20.5
CS(=O)(=O)Nc1cc(Cl)cc(NC(=O)c2cnn(CCc3ccccc3)c2)c1 [Example 308] | 60.6% | 375
Cc1cnc(-c2cc(C(=O)Nc3cc(Cl)cc(NS(C)(=O)=O)c3)cn2C)c(F)c1 [Example 580] | 70.5 | 23.9
COC1CCN(c2ccc(-c3cc(C(=O)Nc4cc(Cl)cc(NS(C)(=O)=O)c4)cn3C)nc2)CC1 [Example 515, N-(3-chloro-5-methanesulfonamidophenyl)-5-[5-(4-methoxypiperidin-1-yl)pyridin-2-yl]-1-methyl-1H-pyrrole-3-carboxamide] | 73.9 | 1.6
Cc1sc(C(=O)Nc2cc(Cl)cc(NS(C)(=O)=O)c2)cc1-c1ncc(N2CC(F)(F)C2)cc1OC(C)C [Example 534] | 78.3 | 19.9
Cc1cccnc1-c1csc(C(=O)Nc2cc(Cl)cc(NS(=O)(=O)C(C)C)c2)c1 [Example 373] | 49.9% | –
CS(=O)(=O)Nc1cc(Cl)cc(NC(=O)c2cc(-c3ncccc3CC(=O)N3CCCC3)cs2)c1 [Example 383] | 78.3% | 10.1
CS(=O)(=O)Nc1cc(Br)cc(NC(=O)c2cnn(-c3ccccn3)c2)c1 [Example 36, N-(3-bromo-5-(methylsulfonamido)phenyl)-1-(pyridin-2-yl)-1H-pyrazole-4-carboxamide] | 56.86% | 28
CS(=O)(=O)Nc1cc(Cl)cc(NC(=O)c2cnn(-c3ccc(N4CC5(COC5)C4)cc3OCc3cccc(F)c3)c2)c1 [Example 722] | 74.4 | 19.1
Cn1cc(C(=O)Nc2cc(Cl)cc(NS(C)(=O)=O)c2)cc1-c1ncc(N2CC[Si](C)(C)CC2)cc1F [Example 470] | 93.8 | 125
Cc1sc(C(=O)Nc2cc(Cl)cc(NS(C)(=O)=O)c2)cc1-c1ncc(C(F)(F)F)cn1 [Example 357] | 91.7% | 85.6
CS(=O)(=O)Nc1cc(Br)cc(NC(=O)c2cc(-c3cccnc3)cs2)c1 [Example 78] | 56.2% | 31.9
Cn1cc(C(=O)Nc2cc(Cl)cc(NS(C)(=O)=O)c2)cc1-c1ccc(N2CC(C)(F)C2)cn1 [Example 688] | 67.9 | 16.1
CS(=O)(=O)Nc1cc(Cl)cc(NC(=O)c2cc3c(C(F)(F)F)cccc3s2)c1 [Example 323] | 58.2% | 282
CN(C)C(=O)Cc1cccnc1-c1csc(C(=O)Nc2cc(Cl)cc(NS(C)(=O)=O)c2)c1 [Example 221] | 78.3% | 6.6
CS(=O)(=O)Nc1cc(Br)cc(NC(=O)c2cnn(-c3ncccn3)c2)c1 [Example 50, N-(3-bromo-5-(methylsulfonamido)phenyl)-1-(pyrimidin-2-yl)-1H-pyrazole-4-carboxamide] | 55.5% | 45
CS(=O)(=O)Nc1cc(Cl)cc(NC(=O)c2cc(C(=O)N3CCOCC3)n(-c3ccccn3)c2)c1 [Example 731] | 69.1 | 63.5
